No end group written: not given here.
Tests used:
PR-A = target: T1, PR-A (Homo sapiens, UniProt P06401); assay: PR-A transcriptional reporter assay, agonist mode (HEPG2 cells); type: cell-based; set-up: subcloning full-length PRa into pCMX; expressed in transfected cells; host or cells: HEPG2; details: % of maximal R5020-stimulated activity
T1 sequence (P06401 1-769 isoform P06401-2): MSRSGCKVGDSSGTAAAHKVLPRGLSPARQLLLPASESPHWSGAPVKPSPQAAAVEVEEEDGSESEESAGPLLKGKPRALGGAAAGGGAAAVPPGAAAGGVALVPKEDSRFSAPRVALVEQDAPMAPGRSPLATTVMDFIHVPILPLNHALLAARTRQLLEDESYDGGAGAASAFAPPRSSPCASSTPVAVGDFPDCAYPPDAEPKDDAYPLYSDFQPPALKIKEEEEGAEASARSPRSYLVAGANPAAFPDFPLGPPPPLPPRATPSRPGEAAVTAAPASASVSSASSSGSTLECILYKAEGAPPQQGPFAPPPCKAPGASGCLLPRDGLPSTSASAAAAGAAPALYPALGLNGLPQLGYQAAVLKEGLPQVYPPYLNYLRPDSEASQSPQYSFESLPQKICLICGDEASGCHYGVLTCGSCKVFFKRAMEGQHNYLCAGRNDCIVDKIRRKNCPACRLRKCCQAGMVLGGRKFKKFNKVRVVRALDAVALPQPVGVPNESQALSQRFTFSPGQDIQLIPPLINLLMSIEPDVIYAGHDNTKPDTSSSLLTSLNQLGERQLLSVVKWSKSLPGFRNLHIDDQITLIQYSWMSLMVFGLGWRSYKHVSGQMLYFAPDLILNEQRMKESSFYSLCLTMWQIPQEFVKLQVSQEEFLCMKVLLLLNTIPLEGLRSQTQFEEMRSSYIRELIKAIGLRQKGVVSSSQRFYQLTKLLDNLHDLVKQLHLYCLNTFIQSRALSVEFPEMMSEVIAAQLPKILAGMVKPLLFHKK
Protocol: (§1) Transcriptional assays were performed by seeding 100 μL of cells at a density of 250,000 cells/mL into 96-well cell culture plates in RPMI 1640 supplemented with 5% charcoal-stripped serum and allowed to attach overnight. […] Triplicate transfections were performed using 418 ng reporter vector (2X PRE-Luciferase for PR-A and PR-B, MMTV-Luciferase for MR), 50 ng CMVpRL (normalization vector), 10 ng NHR expression vector (CMX-PR-A, pCDNA-PR-B or 6R-MR), and 0.7 μL lipofectin. […] The final agonist concentration used in the antagonist assays was 1 nM. Following 24 hr incubation, the medium was removed and the cells were lysed in 40 μL of lysis buffer (25 mM Tris Phosphate, 2 mM CDTA, 10% Glycerol, 0.5% Triton X-100, 2 mM DTT). Firefly luciferase activity was measured immediately following the addition of 40 μL luciferase buffer (20 mM tricine, 0.1 mM EDTA, 1.07 mM (MgCO3)4 Mg(OH)2· 5H2O, 2.67 mM MgSO4, 33.3 mM DTT, 270 μM Coenzyme A, 470 μM luciferin, 530 μM ATP).

PR-B = target: T2, PR-B (Homo sapiens, UniProt P06401); assay: PR-B transcriptional reporter assay, agonist mode (HEPG2 cells); type: cell-based; details: % of maximal R5020-stimulated activity
T2 construct: cloning full-length human PRb into pCDNA; expressed in transfected cells; host or cells: HEPG2
T2 sequence (P06401 1-933): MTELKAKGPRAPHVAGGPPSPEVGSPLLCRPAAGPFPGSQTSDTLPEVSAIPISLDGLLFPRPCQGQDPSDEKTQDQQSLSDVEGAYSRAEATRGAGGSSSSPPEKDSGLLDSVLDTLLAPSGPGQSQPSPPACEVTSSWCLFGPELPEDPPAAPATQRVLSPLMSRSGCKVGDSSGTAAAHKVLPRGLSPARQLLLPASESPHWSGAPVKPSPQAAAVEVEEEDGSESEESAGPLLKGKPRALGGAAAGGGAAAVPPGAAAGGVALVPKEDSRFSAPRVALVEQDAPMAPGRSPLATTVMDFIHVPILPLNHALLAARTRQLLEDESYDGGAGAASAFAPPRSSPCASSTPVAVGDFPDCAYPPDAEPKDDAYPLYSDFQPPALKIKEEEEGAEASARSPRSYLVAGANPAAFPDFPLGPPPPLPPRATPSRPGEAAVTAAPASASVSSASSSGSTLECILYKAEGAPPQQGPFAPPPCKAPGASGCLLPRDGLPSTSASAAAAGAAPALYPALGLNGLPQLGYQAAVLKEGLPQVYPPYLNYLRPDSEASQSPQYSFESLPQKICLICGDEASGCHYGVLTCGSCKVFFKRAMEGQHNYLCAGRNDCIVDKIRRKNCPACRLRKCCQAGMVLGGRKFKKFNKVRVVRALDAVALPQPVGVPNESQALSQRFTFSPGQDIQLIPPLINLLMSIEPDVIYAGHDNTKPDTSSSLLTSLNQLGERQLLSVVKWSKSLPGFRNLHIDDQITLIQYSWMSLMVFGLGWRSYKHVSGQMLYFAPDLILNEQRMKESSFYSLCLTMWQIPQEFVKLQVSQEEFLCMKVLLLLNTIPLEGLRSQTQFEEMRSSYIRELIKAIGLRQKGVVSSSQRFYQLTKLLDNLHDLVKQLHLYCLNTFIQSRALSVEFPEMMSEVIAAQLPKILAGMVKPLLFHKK

GR = target: T3, GR (Homo sapiens, UniProt P04150); assay: GR transcriptional reporter assay, agonist mode (CV1 cells); type: cell-based; details: CV-1; % of maximal dexamethasone-stimulated activity
T3 sequence (P04150 1-777): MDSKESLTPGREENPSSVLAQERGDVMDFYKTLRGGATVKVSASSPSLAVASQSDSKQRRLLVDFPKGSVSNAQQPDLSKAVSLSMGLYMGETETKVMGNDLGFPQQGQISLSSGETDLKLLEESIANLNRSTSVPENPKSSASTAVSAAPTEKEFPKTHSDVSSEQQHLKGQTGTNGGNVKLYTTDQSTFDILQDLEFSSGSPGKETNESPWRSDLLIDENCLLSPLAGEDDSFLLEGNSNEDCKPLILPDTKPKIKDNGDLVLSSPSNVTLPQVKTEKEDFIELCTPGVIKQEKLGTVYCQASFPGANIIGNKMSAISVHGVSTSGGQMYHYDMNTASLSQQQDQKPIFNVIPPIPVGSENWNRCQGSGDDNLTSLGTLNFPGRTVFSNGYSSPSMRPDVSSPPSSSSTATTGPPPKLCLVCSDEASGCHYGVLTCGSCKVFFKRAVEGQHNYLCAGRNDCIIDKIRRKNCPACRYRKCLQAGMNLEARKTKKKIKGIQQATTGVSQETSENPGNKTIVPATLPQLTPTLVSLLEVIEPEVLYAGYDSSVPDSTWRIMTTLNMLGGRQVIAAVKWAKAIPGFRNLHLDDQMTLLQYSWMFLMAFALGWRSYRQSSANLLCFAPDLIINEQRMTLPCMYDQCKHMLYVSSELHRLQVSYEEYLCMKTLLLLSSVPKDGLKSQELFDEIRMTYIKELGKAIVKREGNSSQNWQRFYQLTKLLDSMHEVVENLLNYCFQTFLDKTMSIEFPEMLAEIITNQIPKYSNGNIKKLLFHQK
Protocol: CV1 cells were maintained in MEM supplemented with 10% FBS. Transcriptional assays were performed by seeding 12 mL of cells at a density of 250,000 cells/mL into a T-75 cell culture flask in MEM supplemented with 5% charcoal-stripped serum and allowed to attach overnight. Cells were transiently transfected using FuGENE 6 (Roche Applied Science). […] Transfected cells were incubated overnight then split into four 96-well tissue culture plates and incubated for 4 hr followed by compound addition. […] The final agonist concentration used in the antagonist assays was 10 nM.

MR = target: T4, MR (Homo sapiens, UniProt P08235); assay: MR transcriptional reporter assay, agonist mode (HEPG2 cells); type: cell-based; details: % of maximal aldosterone-stimulated activity
T4 construct: expressed in transfected cells; host or cells: HEPG2
T4 sequence (P08235 1-984): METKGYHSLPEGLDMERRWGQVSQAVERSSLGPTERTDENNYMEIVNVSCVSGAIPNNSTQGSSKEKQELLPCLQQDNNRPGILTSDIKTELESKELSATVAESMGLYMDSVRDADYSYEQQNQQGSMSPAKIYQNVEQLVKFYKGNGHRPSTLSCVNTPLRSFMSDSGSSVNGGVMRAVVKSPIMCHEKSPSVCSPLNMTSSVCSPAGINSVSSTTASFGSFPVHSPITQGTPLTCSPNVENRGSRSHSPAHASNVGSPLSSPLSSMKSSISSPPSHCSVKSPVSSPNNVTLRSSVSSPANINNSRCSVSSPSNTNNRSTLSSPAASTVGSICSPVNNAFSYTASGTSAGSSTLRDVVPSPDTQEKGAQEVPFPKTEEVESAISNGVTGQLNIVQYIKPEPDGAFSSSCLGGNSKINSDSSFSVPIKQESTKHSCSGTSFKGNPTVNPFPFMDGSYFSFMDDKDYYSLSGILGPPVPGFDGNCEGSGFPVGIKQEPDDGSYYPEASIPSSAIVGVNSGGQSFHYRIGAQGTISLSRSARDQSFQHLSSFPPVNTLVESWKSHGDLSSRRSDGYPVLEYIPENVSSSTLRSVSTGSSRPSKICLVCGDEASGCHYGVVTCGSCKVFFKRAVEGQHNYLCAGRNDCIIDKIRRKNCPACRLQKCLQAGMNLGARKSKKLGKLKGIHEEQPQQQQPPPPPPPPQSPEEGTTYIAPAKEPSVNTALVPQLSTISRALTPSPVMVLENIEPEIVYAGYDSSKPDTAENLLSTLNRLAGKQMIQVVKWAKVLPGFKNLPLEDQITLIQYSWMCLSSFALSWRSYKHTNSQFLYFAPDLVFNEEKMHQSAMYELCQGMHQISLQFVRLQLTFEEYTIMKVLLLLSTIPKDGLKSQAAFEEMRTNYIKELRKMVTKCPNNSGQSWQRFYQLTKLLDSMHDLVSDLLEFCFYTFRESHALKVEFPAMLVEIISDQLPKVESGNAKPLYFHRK
Protocol: as §1

[1] = target: T5, human estrogen receptor alpha, GST-tagged ESR1 ligand binding domain, residues S282-V595, wild-type sequence (human, UniProt P03372 282-595); assay: FRET or BRET; cell-free TR-FRET PGC1α recruitment assay; GST-ERα LBD (3x solution 22 nM) detected with Tb-anti-GST antibody (3x mix 15 nM), Fluorescein-PGC1α peptide (3x mix 750 nM), estradiol (3x mix 12 nM; agonist at EC80), TR-FRET Co-regulator Buffer E with 7.5 mM DTT, 2 hr at room temperature; GDC-0810 titrated as small-molecule competitor; details: both partners purified
T5 construct: Detected in the TR-FRET assay through a LanthaScreen Tb-anti-GST antibody; also called ER.WT; ERα LBD
T5 sequence (looked up): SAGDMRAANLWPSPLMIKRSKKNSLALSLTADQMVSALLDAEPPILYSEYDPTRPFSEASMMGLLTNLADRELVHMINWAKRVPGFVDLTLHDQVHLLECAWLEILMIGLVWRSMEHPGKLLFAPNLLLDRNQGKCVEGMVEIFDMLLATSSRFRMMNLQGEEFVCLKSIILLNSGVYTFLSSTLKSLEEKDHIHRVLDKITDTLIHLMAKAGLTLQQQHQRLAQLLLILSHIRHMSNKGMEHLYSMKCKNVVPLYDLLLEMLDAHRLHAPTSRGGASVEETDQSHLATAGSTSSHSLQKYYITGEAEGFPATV

Q: With `CC#C[C@]1(O)CC[C@H]2[C@@H]3CCC4=CC(=O)CCC4=C3[C@@H](c3ccc(N(C)C)cc3)C[C@@]21C` [RU-486] as the molecule, how does the Emax (PR-A) read?
A: 13.3 ± 10.2%

Q: What about the Emax (PR-B) of the same molecule?
A: 3.25 ± 1.17%

Q: What about the Emax (GR) of the same molecule?
A: 8.06 ± 0.66%

Q: How did the Emax (MR) turn out when `CC(=O)S[C@@H]1CC2=CC(=O)CC[C@]2(C)[C@H]2CC[C@@]3(C)[C@@H](CC[C@@]34CCC(=O)O4)[C@H]12` [Spironolactone] was run?
A: 6.24 ± 0.37%

B1: Fluorescein-PGC1α peptide (peptide)
peptide: EAEEPSLLKKLLLAPANTQ
modifications: also: fluorescein (position not given here)
notes: source: bought: Life Technologies PV4421
Q: Does B1 bind [1]?
A: binds

Source: PMC4961458 (eLife, 2016)
